Assay results taken from patent US9040717B2, “Pyrazole-amide compounds and pharmaceutical use thereof” (JAPAN TOBACCO INC., priority 2013, dated 2015).

Assays:
human PDHK1 (hPDHK1) = human PDHK1 (hPDHK1) (Homo sapiens (Human), UniProt Q15118); experiment: Inhibitory action of PDHK1 activity in vitro (residual PDH activity after kinase reaction); format: biochemical
Protocol: (§1) The inhibitory action of PDHK activity was assessed indirectly by measuring the residual PDH activity after kinase reaction in the presence of a test compound.
The recombinant construct was transformed into Escherichia coli (DH5α-TOYOBO). The recombinant clones were identified, and plasmid DNA was isolated and subjected to the DNA sequence analysis. One clone which had the expected nucleic acid sequence was selected for expression work.
The Escherichia coli were grown to an optical density 0.6 ([…]) at 30° C. Protein expression was induced by the addition of 500 μmol/L isopropyl-β-thiogalactopyranoside. The Escherichia coli were cultured at 30° C. for 5 hr and harvested by centrifugation. Resuspension of the Escherichia coli paste was disrupted by a microfluidizer.
The eluted fractions containing FLAG-Tagged protein were pooled, dialyzed against 20 mmol/L HEPES-NaOH, 150 mmol/L sodium chloride, 0.5 mmol/L ethylenediamine tetraacetic acid (EDTA), 1% ethylene glycol, and 0.1% Pluronic F-68 (pH 8.0), and preserved at −80° C.
The mixture was incubated at room temperature for 90 min, and the residual PDH activity was measured.
The absorbance at 340 nm before and after PDH reaction was measured using a microplate reader to detect NADH produced by the PDH reaction.

human PDHK2 (hPDHK2) = human PDHK2 (hPDHK2) (Homo sapiens (Human), UniProt Q15119); experiment: Inhibitory action of PDHK2 activity in vitro (residual PDH activity after kinase reaction); format: biochemical
Protocol: as §1
In the case of human PDHK2 (hPDHK2, Genbank Accession No. BC040478.1), modified hPDHK2 cDNA wherein FLAG-Tag sequence was added to the N terminus of hPDHK2 cDNA clone (pReceiver-M01/PDK2-GeneCopoeia) was prepared by PCR and cloned into a vector (pET17b-Novagen). The recombinant construct was transformed into Escherichia coli (DH5α-TOYOBO). The recombinant clones were identified, and plasmid DNA was isolated and subjected to the DNA sequence analysis. One clone which had the expected nucleic acid sequence was selected for expression work.
For expression of hPDHK2 activity, Escherichia coli strain BL21(DE3) cells (Novagen) were transformed with the pET17b vector containing modified hPDHK2 cDNA. The Escherichia coli were grown to an optical density 0.6 ([…]) at 30° C. Protein expression was induced by the addition of 500 μmol/L isopropyl-β-thiogalactopyranoside. The Escherichia coli were cultured at 30° C. for 5 hr and harvested by centrifugation. Resuspension of the Escherichia coli paste was disrupted by a microfluidizer. FLAG-Tagged protein was purified using FLAG affinity gel. […]
0.05 U/mL PDH and 0.8 μg/mL hPDHK2 were mixed in a buffer (50 mmol/L 3-morpholinopropanesulfonic acid (pH 7.0), 20 mmol/L dipotassium hydrogen phosphate, 60 mmol/L potassium chloride, 2 mmol/L magnesium chloride, 0.4 mmol/L EDTA, and 0.2% Pluronic F-68, 2 mmol/L dithiothreitol), and the mixture was incubated at 4° C. overnight to obtain a PDH/hPDHK2 complex. […] The mixture was incubated at room temperature for 90 min, and the residual PDH activity was measured. The absorbance at 340 nm before and after PDH reaction was measured using a microplate reader to detect NADH produced by the PDH reaction. The hPDHK2 inhibition rate (%) of the test compound was calculated from the formula [{(PDH activity of test compound−PDH activity of control)/PDH activity of blank−PDH activity of control)}×100].

human PDHK1 (hPDHK1), sequence (Q15118 29-436): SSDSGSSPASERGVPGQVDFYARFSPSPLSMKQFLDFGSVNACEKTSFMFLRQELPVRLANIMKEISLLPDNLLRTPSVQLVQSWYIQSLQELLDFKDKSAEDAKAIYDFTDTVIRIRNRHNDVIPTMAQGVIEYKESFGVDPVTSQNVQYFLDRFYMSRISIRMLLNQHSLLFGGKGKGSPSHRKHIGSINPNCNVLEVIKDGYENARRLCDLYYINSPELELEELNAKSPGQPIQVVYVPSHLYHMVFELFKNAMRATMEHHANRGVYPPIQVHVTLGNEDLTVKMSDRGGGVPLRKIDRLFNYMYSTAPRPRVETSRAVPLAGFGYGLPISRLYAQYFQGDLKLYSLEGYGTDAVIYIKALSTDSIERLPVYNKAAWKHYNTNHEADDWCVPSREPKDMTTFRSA

SMILES	IC50 (human PDHK1 (hPDHK1)) [nM]	IC50 (human PDHK2 (hPDHK2)) [nM]
CC(C)(O)CCCOc1cc(-c2cnn(C(C)(C)C(N)=O)c2)c2c(c1)[C@@](O)(C(F)(F)F)c1ccccc1-2 [Compound (3), 2-{4-[(9R)-9-hydroxy-2-(4-hydroxy-4-methylpentyloxy)-9-(trifluoromethyl)-9H-fluoren-4-yl]-1H-pyrazol-1-yl}-2-methylpropanamide]	3.5	4.2
CC(C)(O)CCOc1cc(-c2cnn(C(C)(C)C(N)=O)c2)c2c(c1)[C@@](O)(C(F)(F)F)c1ccccc1-2 [Compound (2), 2-{4-[(9R)-9-hydroxy-2-(3-hydroxy-3-methylbutyloxy)-9-(trifluoromethyl)-9H-fluoren-4-yl]-1H-pyrazol-1-yl}-2-methylpropanamide]	4.7	4.6
